Measurements: PMC4092069, “Structural and Functional Characterization of DUF1471 Domains of Salmonella Proteins SrfN, YdgH/SssB, and YahO” (PLoS ONE, 2014)
Structures can show the parent of a compound that is named as a salt.

Experiments:
SrfN [1] = target: T1, SrfN (Salmonella enterica, UniProt Q7CR88); test: 2-D 1H-15N HSQC NMR titration, chemical shift perturbation; assay type: binding
T1 construct: gene STM0082; full-length synthetic gene in pGS-21a, C-terminal 6xHis tag kept, signal peptide (1-21) cleaved in E. coli, mature residues 22-96; 15N or 13C,15N labelled

SrfN [2] = target: T1, SrfN; test: as above; assay type: binding; details: 0.5 mM SrfN monomer, oxyanion site, weak
SEC-MALS = target: the molecule itself; test: SEC-MALS

Molecule: O=S(=O)(O)OC[C@H]1O[C@@](COS(=O)(=O)O)(O[C@H]2O[C@H](COS(=O)(=O)O)[C@@H](OS(=O)(=O)O)[C@H](OS(=O)(=O)O)[C@H]2OS(=O)(=O)O)[C@@H](OS(=O)(=O)O)[C@@H]1OS(=O)(=O)O [sucrose octasulfate]
- Kd (SrfN [1]): < 500 µM

Molecule: O=C(O)C1=C[C@H](O)[C@@H](OS(=O)(=O)O)[C@H](O[C@H]2[C@H](O)[C@@H](NS(=O)(=O)O)C(O)O[C@@H]2COS(=O)(=O)O)O1 (stereo partly drawn) [heparin disaccharide, α-ΔUA-2S-[1→4]-GlcNS-6S]
- 2-D 1H-15N HSQC NMR titration, chemical shift perturbation (SrfN [2]; 5 mM disaccharide (20:1 to dimer)): The interaction with heparin disaccharide appears to be somewhat weaker

Molecule: O=S(=O)(O)O [sodium sulfate]
- 2-D 1H-15N HSQC NMR titration, chemical shift perturbation (SrfN [2]; neutral pH, 100-200 mM Na2SO4 (400-800:1 to dimer)): a region on the surface which interacts only weakly with sulfate ion at neutral pH

B1: SrfN (STM0082) of Salmonella enterica serovar Typhimurium LT2, processed form lacking the 21 N-termi (natural protein)
chain: AEQVSKQEISHFKLVKVGTINVSQSGGQISSPSDLREKLSELADAKGGKYYHIIAAREHGPNFEAVAEVYNDATK
modifications: uniform 15N or 13C,15N isotope labelling in the NMR samples
notes: also called StR109; SrfN dimer
- stoichiometry N (SEC-MALS): 2
